Patent US20250230226A1, “PLXDC1/PLXDC2 ACTIVATORS AND THEIR USE IN THE TREATMENT OF BLOOD VESSEL DISORDERS” (THE REGENTS OF THE UNIVERSITY OF CALIFORNIA, priority 2019, published 2025)

Test system: LL/2 lung cancer tumor endothelial cells
Experiment: Lung LL2 ex vivo model of tumor angiogenesis
Format: cell-based, mouse
Settings: for Cell death: drug treatment for two days, ratio of red area to total endothelial cell area; for 48 hrs (morphology observations): LL/2 tumor endothelial cells; for cytotoxicity at 40 µM / cytotoxicity at 20 µM: Mus musculus, Endothelial cell, 48 h, read-out: Cell death
Description: An ex vivo tumor angiogenesis model was developed to test the efficacy of anti-cancer candidate agents. The following protocol describes the Ex Vivo Tumor Angiogenesis Model.
• 1. The day before the experiment, all necessary tools were sprayed with 70% ethanol and sterilized under UV light overnight, including blade, dissecting and micro-dissecting scissors and […]. 24-well dishes were placed at 4° C. to pre-chill plates and Matrigel was thawed, 24 hours before tumor dissection. • 2. 70% ethanol was sprayed on working bench. Two sterile petri dishes were prepared with 10 ml sterile PBS. The following steps 3 and 4 are necessary for mouse tumor models. For fresh human tumor, steps 3 and 4 are skipped. • 3. The tumor-bearing mice were euthanized. 70% ethanol was sprayed on the mouse and the tumor was removed using sterilized dissecting tools (avoid the fur). The tumor was rinsed in petri dish with sterile PBS to remove ethanol and fur. The tumor was transferred to a new petri dish with PBS for dissection. The dish is placed on ice. • 4. Pre-chilled sterile pipet tips were used to seed regular Matrigel in 24 well plates on ice. Matrigel (30 μl) was dropped in the middle of each well without touching the edge of the well (avoid introducing bubbles if possible). • 5. The tumor was cut in halves using the sterile blade. Healthy tumor tissue that is not necrotic and is within the tumor capsule was identified and isolated. The healthy tumor tissue was cut into small pieces. For instance, a suitable size for the tumor tissue is 0.5 mm (H)×0.5 mm (L)×0.3 mm (D) with a total volume of 0.075 mm^3. • 6. Each tumor piece was gently transferred and embedded in the Matrigel drop in the 24-well plate. The embedded piece was placed in the bottom and middle of each Matrigel drop. The plate was kept on ice all the time. • 7. After seeding the tumor pieces, plates were incubated in a 37° C. cell culture incubator without medium for 10 minutes in order for the Matrigel to solidify. • 8. Endothelial Growth Medium (0.5 ml) was added to each well and incubated at 37° C. with 5% CO2. Treatment was not added until the new endothelial cells was grown out of the tumor or were larger than 3 mm in diameter. This usually takes 4 days for the LL2 Lewis lung cancer model and 7 days for the CT26 colon cancer model. For human tumor models, the growth time is typically 2-3 weeks, depending on the tumor type. Media was changed every 4 days during prolonged culture. Typically, when the tumor tissue grows to 2 mm in diameter, it was good for drug testing. A size of about 3 mm in diameter can make visualization easier. • 9. When the assay was ready to be analyzed for cell death (e.g., 48 hours after drug addition), the dye mixture was prepared by mixing 6 μl of green dye to stain live cells (5 mg/ml Fluorescein diacetate or FDA in DMSO) with 30 μl of red dye (2.5 mg/ml Propidium iodide or PI in PBS) to stain dead cells in an Eppendorf tube. The FDA dye needs to be stored frozen in a −20° C. freezer because it has a labile ester bond. • 10. 1 μl of the dye mixture was added to each well of the 24-well dish. It is usually preferred to do one 24-well dish at a time given the amount of time needed to take pictures (the green dye is not as stable in the cells in the long term). • 11. The dish was gently rocked a few times to mix the dye with the media in the wells and incubate the dish at 37° C. for 10 min (too long incubation can make the green signal too intense). • 12. Each well was washed with 0.5 ml of sterile PBS and then 0.5 ml of phenol red free SFM was added to each well. Alternatively 0.5 ml of regular Endothelial Cell Growth Media can be added to each well if this well needs to be continuously maintained after the experiment. • 13. An inverted microscope using the 2× objective lens was used to observe morphological changes in the experimental wells. • 14. […]

Row | SMILES | 48 hrs (morphology observations) (20 μm) | Cell death (20 μm) | other results
1 | COc1ccc(S(=O)(=O)c2cnc3ccc(OC(F)(F)F)cc3c2NCCO)cc1OC [Compound 73] | – | – | Cell death (40 μm): 10%
2 | CCc1ccc(S(=O)(=O)c2cnc3ccc(OC)cc3c2NN2CCN(C)CC2)cc1 [Compound 83] | – | – | 48 hrs (morphology observations) (40 μm): 0; cytotoxicity at 40 µM: 20%
3 | CCc1ccc(S(=O)(=O)c2cnc3ccc(OC(F)(F)F)cc3c2N2CCC(N(CC)CC)CC2)cc1 [Compound 103] | 0 | 10% | –
4 | CCc1ccc(S(=O)(=O)c2cnc3ccc(OC(F)(F)F)cc3c2NCCCCCO)cc1 [Compound 104] | 0 | 20% | –
5 | CCc1ccc(S(=O)(=O)c2cnc3ccc(OC(F)(F)F)cc3c2NN2CCCCC2)cc1 [Compound 105] | 0 | 0% | –
6 | CCc1ccc(S(=O)(=O)c2cnc3ccc(OC(F)(F)F)cc3c2NCc2ccncc2)cc1 [Compound 106] | 0 | 5% | –
7 | CCc1ccc(S(=O)(=O)c2cnc3ccc(OC(F)(F)F)cc3c2Nc2ccncc2)cc1 [Compound 107] | 0 | 0% | –
8 | CCc1ccc(S(=O)(=O)c2cnc3ccc(OC(F)(F)F)cc3c2-n2cccc2)cc1 [Compound 108] | 0 | 0% | –
9 | CCc1ccc(S(=O)(=O)c2cnc3ccc(OC(F)(F)F)cc3c2-n2cccn2)cc1 [Compound 109] | 0 | 0% | –
10 | CCc1ccc(S(=O)(=O)c2cnc3ccc(OC(F)(F)F)cc3c2NCCCCO)cc1 [Compound 111] | 0 | 30% | –
11 | COc1ccc(S(=O)(=O)c2cnc3ccc(OC(F)(F)F)cc3c2N2CCC(N3CCC(O)CC3)CC2)cc1 [Compound 113] | 0 | – | cytotoxicity at 20 µM: 10%
12 | COc1ccc(S(=O)(=O)c2cnc3ccc([N+](=O)[O-])cc3c2N2CCC(N3CCCCC3)CC2)cc1 [Compound 114] | 0 | 5% | –
13 | COc1ccc(S(=O)(=O)c2cnc3ccc(CC#N)cc3c2N2CCC(N3CCCCC3)CC2)cc1 [Compound 115] | 0 | – | cytotoxicity at 20 µM: 10%
14 | O=S(=O)(c1ccc(OC(F)(F)F)cc1)c1cnc2ccc(OC(F)(F)F)cc2c1N1CCC(N2CCCCC2)CC1 [Compound 120] | 0 | – | cytotoxicity at 20 µM: 5%
15 | COc1ccc(S(=O)(=O)c2cnc3cc(OC)c(OC)cc3c2N2CCC(N3CCCCC3)CC2)cc1OC [Compound 122] | 0 | 10% | –
16 | CCc1ccc(S(=O)(=O)c2cnc3ccc(OC(F)(F)F)cc3c2-n2cnnn2)cc1 [Compound 125] | * (50% or less of cells vesicularize in cell shape) | – | cytotoxicity at 20 µM: 10%
17 | CCc1ccc(S(=O)(=O)c2cnc3ccc(OC(F)(F)F)cc3c2NN2CCOCC2)cc1 [Compound 126] | 0 | 10% | –
18 | CCOC(=O)c1ccc2ncc(S(=O)(=O)c3ccc(CC)cc3)c(-n3nnc4ccccc43)c2c1 [Compound 133] | – | 10% | –

Row | SMILES | 48 hrs (morphology observations) (20 μm) | Cell death (20 μm) | other results
19 | CCOC(=O)c1ccc2ncc(S(=O)(=O)c3ccc(CC)cc3)c(-n3ccnc3)c2c1 [Compound 134] | **** (100% of endothelial cells vesicularize in cell shape and look flattened in morphology (indicating disintegration of the cell body)) | – | –
20 | CCOC(=O)c1ccc2ncc(S(=O)(=O)c3ccc(OC)cc3)c(-n3ccnc3)c2c1 [Compound 141] | **** (100% of endothelial cells vesicularize in cell shape and look flattened in morphology (indicating disintegration of the cell body)) | 90% | –
21 | CCOC(=O)c1ccc2ncc(S(=O)(=O)c3ccc(OC)cc3)c(-n3nnc4ccccc43)c2c1 [Compound 142] | **** (100% of endothelial cells vesicularize in cell shape and look flattened in morphology (indicating disintegration of the cell body)) | – | –
22 | CNC(=O)c1ccc2ncc(S(=O)(=O)c3ccc(OC)cc3)c(N3CCC(N4CCCCC4)CC3)c2c1 [Compound 143] | – | – | 48 hrs (morphology observations) (40 μm): 0; cytotoxicity at 40 µM: 40%
23 | CCCCOc1ccc(S(=O)(=O)c2cnc3ccc([S+](C)[O-])cc3c2N2CCC(N3CCCCC3)CC2)cc1 (stereo not shown) [Compound 167] | 0 | 40% | –
24 | CCCCOc1ccc(S(=O)(=O)c2cnc3ccc([S+](C)[O-])cc3c2N2CCC(N3CCC(O)CC3)CC2)cc1 (stereo not shown) [Compound 168] | 0 | 10% | –
25 | CCCCOc1ccc(S(=O)(=O)c2cnc3ccc(S(C)(=O)=O)cc3c2N2CCC(N3CCCCC3)CC2)cc1 [Compound 169] | 0 | 40% | –
26 | CCCCOc1ccc(S(=O)(=O)c2cnc3ccc(S(C)(=O)=O)cc3c2N2CCC(N3CCC(O)CC3)CC2)cc1 [Compound 170] | 0 | 10% | –
27 | CCOC(=O)c1ccc2ncc(S(=O)(=O)c3ccc(OC)cc3)c(N3CCC(N4CCN(C)CC4)CC3)c2c1 [Compound 171] | – | – | 48 hrs (morphology observations) (40 μm): 0; Cell death (40 μm): 40%
28 | CCCCOc1ccc(S(=O)(=O)c2cnc3ccc(C(=O)OCC)cc3c2N2CCC(N3CCN(C)CC3)CC2)cc1 [Compound 172] | – | – | 48 hrs (morphology observations) (40 μm): **** (100% of endothelial cells vesicularize in cell shape and look flattened in morphology (indicating disintegration of the cell body)); Cell death (40 μm): 100%
29 | CCOC(=O)c1ccc2ncc(S(=O)(=O)c3ccc(OC)cc3)c(N3CCC(N4CCCCCC4)CC3)c2c1 [Compound 173] | – | – | Cell death (40 μm): 50%
30 | CCOC(=O)c1ccc2ncc(S(=O)(=O)c3ccc(OC)cc3)c(N3CCC(N4CCCC(O)C4)CC3)c2c1 (stereo not shown) [Compound 174] | – | – | 48 hrs (morphology observations) (40 μm): 0; Cell death (40 μm): 30%
31 | CCOC(=O)c1ccc2ncc(S(=O)(=O)c3ccc(OC)cc3)c(N3CCC(N4CCC(CO)CC4)CC3)c2c1 [Compound 175] | – | – | 48 hrs (morphology observations) (40 μm): 0; Cell death (40 μm): 30%
32 | CCCCOc1ccc(S(=O)(=O)c2cnc3ccc(C(=O)OCC)cc3c2N2CCC(N3CCCCCC3)CC2)cc1 [Compound 176] | – | – | 48 hrs (morphology observations) (40 μm): *** (more than 50% but less than 100% of endothelial cells vesicularize in cell shape); Cell death (40 μm): 100%
33 | CCCCOc1ccc(S(=O)(=O)c2cnc3ccc(C(=O)OCC)cc3c2N2CCC(N3CCCC(O)C3)CC2)cc1 (stereo not shown) [Compound 177] | – | – | 48 hrs (morphology observations) (40 μm): **** (100% of endothelial cells vesicularize in cell shape and look flattened in morphology (indicating disintegration of the cell body)); Cell death (40 μm): 100%
34 | CCCCOc1ccc(S(=O)(=O)c2cnc3ccc(C(=O)OCC)cc3c2N2CCC(N3CCC(CO)CC3)CC2)cc1 [Compound 178] | – | – | 48 hrs (morphology observations) (40 μm): **** (100% of endothelial cells vesicularize in cell shape and look flattened in morphology (indicating disintegration of the cell body)); Cell death (40 μm): 100%
35 | CCOC(=O)c1ccc2ncc(S(=O)(=O)c3ccc(OC)cc3)c(N3CCCN(CCN4CCCCC4)CC3)c2c1 [Compound 179] | – | – | 48 hrs (morphology observations) (10 μm): *** (more than 50% but less than 100% of endothelial cells vesicularize in cell shape); Cell death (10 μm): 60%
36 | CCOC(=O)c1ccc2ncc(S(=O)(=O)c3ccc(OC)cc3)c(N3CCCN(CCN4CCCC4)CC3)c2c1 [Compound 180] | – | – | 48 hrs (morphology observations) (10 μm): *** (more than 50% but less than 100% of endothelial cells vesicularize in cell shape); Cell death (10 μm): 70%
